Literature values, collected in patent US10544223B2, “Combination therapy with an anti-axl antibody-drug conjugate” (ADC THERAPEUTICS SA, priority 2017, dated 2020).

How the values were obtained:
DNA repair genes = conditions: inhibition of AXL
AXL = conditions: incubation of tumor cells with MEKi
advanced melanoma = conditions: phase III trials, advanced melanoma patients

Row | Molecule | efficiency of the homologous recombination repair machinery (DNA repair genes) | expression of DNA repair genes (DNA repair genes) | accumulation of AXL on the membrane of tumor cells (AXL) | further results
1 | Nc1nc(Nc2ccc3c(c2)CC[C@@H](N2CCCC2)CC3)nn1-c1cc2c(nn1)-c1ccccc1CCC2 [BGB324] | diminish the efficiency of the homologous recombination repair machinery | decrease expression of DNA repair genes | – | –
2 | O=C(NOC[C@H](O)CO)c1ccc(F)c(F)c1Nc1ccc(I)cc1F [PD325901] | – | – | induced a strong accumulation of AXL | –
3 | CN1CCN(Cc2ccc(Nc3ncc(Cl)c(Nc4ccccc4S(=O)(=O)N(C)C)n3)cc2)CC1 [TP0903] | diminish the efficiency of the homologous recombination repair machinery | decrease expression of DNA repair genes | – | –
4 | N#CC(=C(/N)Sc1ccccc1N)/C(C#N)=C(\N)Sc1ccccc1N [U0126] | – | – | induced a strong accumulation of AXL | –
5 | Fludarabine | – | – | – | ERCC1 transcription (ERCC1 transcription): suppress ERCC1 transcription
6 | tremelimumab: anti-CTLA4 antibody | – | – | – | overall survival compared to the standard of care (temozolomide or dacarbazine) (advanced melanoma): did not significantly increase the overall survival
